{
  "source": "patent US10981927B2",
  "about": "“Bioactive compounds” (priority 2014, dated 2021)",
  "key": {"[1]": {"system": "Bcl-2 overexpressing Jurkat cells (B9 clone)", "experiment": "cells", "protocol": "(§1) Jurkat T-lymphocyte-like, pro-myelocytic HL60 and erythroleukemic K562 cell lines were obtained from the American Type Culture Collection (ATCC, Rockville, Md., USA). The B9 Jurkat cell clone that overexpresses Bcl-2 was previously generated and characterised (Thomson et al (2005)). Jurkat and HL60 cells were grown in culture using RPMI 1640 media supplemented with 10% FBS, 100 units/mL penicillin and 100 μg/mL streptomycin at 37° C. in a humidified atmosphere with 5% CO2. K562 cells were grown in culture using Iscoves DMEM media supplemented with 10% FBS, 100 units/mL penicillin and 100 μg/mL streptomycin at 37° C. in a humidified atmosphere with 5% CO2.\n(§2) All cells were treated at 1×10^6 per mL in media. Fresh stock solutions of ABT-737 were prepared in sterile DMSO and stored at −20° C. Stock solutions of 50 mM were then further diluted with DMSO and added to cells, maintaining the final concentration of DMSO constant at 0.1%. Jurkat and K562 cells were treated with 200 nM ABT-737, HL60 cells were treated with 50 nM ABT-737. Stocks of the compound I, pinnatoxin F and pinnatoxin G (1000×) were prepared in sterile DMSO and stored at −20° C. Concentrations were calculated using molecular weights of 401 (the compound I), 764 (pinnatoxin F) and 693 (pinnatoxin G). The final concentration of DMSO was kept constant at 0.1%.\n(§3) Integrity of cell plasma membranes was assessed using propidium iodide (PI) staining at 48 hours. Cells (0.2×10^6) were loaded with 1 μg of propidium iodide (1 μL of a 1 mg/mL stock in water per 200 μL of cells). PI uptake by non-viable (stained, PI positive) cells was measured using the FC500 MPL Flow Cytometry system (Beckman Coulter Inc.). Viable cells were defined as PI-negative cells expressed as a percentage of the 10,000 cells analysed."}, "HL60 cells": {"system": "HL60 cells", "experiment": "viability assay (propidium iodide, flow cytometry), HL60 cells", "conditions": "for CC50: Homo sapiens, HL-60, 48 h", "protocol": "as §1, §2, §3"}, "Jurkat T-lymphoma cells": {"system": "Jurkat T-lymphoma cells", "experiment": "viability assay (propidium iodide, flow cytometry), Jurkat cells", "conditions": "for cytotoxicity: Jurkat cells, 48 hours, over the concentration range tested; for CC50: Homo sapiens, Jurkat, 48 h", "protocol": "as §1, §2, §3"}, "P388 cells": {"system": "P388 cells", "experiment": "in vitro dose-response (toxicity) against P388 cells", "format": "cell-based", "protocol": "(§4) FIG. 2. Dose response curves for the compound I designated portimine against P388 (▴) and Vero (▪) cells over 72 hours exposure.\n(§5) No effects were recorded at 500 or 700 μg/kg. […] Furthermore, the onset of symptoms of toxicity was much slower with the compound I than with other cyclic imines. Structure-activity relationships among cyclic imines, both in terms of acute toxicity and effects on neuromuscular transmission, point to the importance of the imine moiety in the mode of action (Munday (2008)). […] This toxicity profile prompted further investigations into the use of the compound I as an anticancer therapeutic or synergist for Bcl-2 antagonists such as the compound designated ABT-737: […]"}, "[2]": {"system": "Caspase-3-like DEVDase activity in Bcl-2 overexpressing Jurkat cells", "experiment": "caspase assay (DEVD-AMC), Bcl-2 overexpressing Jurkat cells", "format": "cell-based, human", "protocol": "(§6) Six hours after treatment 1×10^6 cells were harvested and stored as cell pellets at −80° C. Cell pellets were resuspended in 15 μL PBS, transferred to a 96-well fluorescent plate, and 95 μL buffer (100 mM HEPES, 10% sucrose, 5 mM DTT, 0.1% NP-40 and 0.1% CHAPS at pH 7.25) containing 50 μM DEVD-AMC. The rate of release of fluorescent AMC was monitored at 37° C. (λex 390 nm, λem 460 nm). Data are expressed as a fold increase in activity over vehicle-treated cells incubated for the same time."}, "Vero cells": {"system": "Vero cells", "experiment": "in vitro dose-response (toxicity) against Vero cells", "format": "cell-based", "protocol": "as §4, §5"}, "K562 cells": {"system": "K562 cells", "experiment": "viability assay (propidium iodide, flow cytometry), K562 cells", "protocol": "as §1\nAll cells were treated at 1×10^6 per mL in media. Fresh stock solutions of ABT-737 were prepared in sterile DMSO and stored at −20° C. Stock solutions of 50 mM were then further diluted with DMSO and added to cells, maintaining the final concentration of DMSO constant at 0.1%. […] Concentrations were calculated using molecular weights of 401 (the compound I), 764 (pinnatoxin F) and 693 (pinnatoxin G). […]\nas §3, with “Cells (0.2×10^6) were loaded with 1 μg of propidium iodide (1 μL of a 1 mg/mL stock in water per 200 μL of cells).” left out"}, "Jurkat cells": {"system": "Jurkat cells", "experiment": "phosphatidylserine assay (Annexin V-FITC / propidium iodide), Jurkat cells", "format": "cell-based, human", "protocol": "Phosphatidylserine (PS) becomes exposed on the outer leaflet of the plasma membrane during apoptosis. PS binds strongly with Annexin-V, which when labelled with a fluorescent probe such as fluorescein isothiocyanate (FITC), allows the detection of cells undergoing apoptosis. Treated cells (0.1×10^6) were harvested and centrifuged at 10,000×g for 1 minute. The supernatant was removed and cells were resuspended in 100 μL Annexin-V Binding Buffer (10 mM HEPES pH 7.4, 140 mM NaCl, 2.5 mM CaCl2). Cells were stained by adding 1 μL Annexin-V FITC conjugate, and then incubated in the dark at room temperature for 15 minutes. […] Viable cells (PI negative) that stained with Annexin-V FITC were termed PS positive."}, "caspase-3 in P388 cells": {"system": "caspase-3 in P388 cells", "experiment": "activation of caspase-3 in P388 cells", "format": "cell-based", "conditions": "after 12 hours of exposure", "protocol": "as §5"}, "[3]": {"system": "Caspase-3-like DEVDase activity in wild-type Jurkat cells", "experiment": "caspase assay (DEVD-AMC), wild-type Jurkat cells", "format": "cell-based, human", "protocol": "as §6"}, "mice [4]": {"system": "mice", "experiment": "acute toxicity in mice by intraperitoneal injection", "format": "in vivo", "protocol": "as §5"}, "[5]": {"experiment": "acute toxicity in mice by intraperitoneal injection", "format": "in vivo", "conditions": "mouse, in vivo, ip, intraperitoneal injection", "protocol": "as §5"}, "mice [6]": {"system": "mice", "conditions": "cited from earlier work; for LD50 reported for other cyclic imines: intraperitoneal injection"}},
  "note": "Where two headings read alike, the source gives them in different places.",
  "data": [
    {"smiles": "CN(C)CC[C@H](CSc1ccccc1)Nc1ccc(S(=O)(=O)NC(=O)c2ccc(N3CCN(Cc4ccccc4-c4ccc(Cl)cc4)CC3)cc2)cc1[N+](=O)[O-]", "note": "[ABT-737, 4-[4-[(4′-chloro[1,1′-biphenyl]-2-yl)methyl]-1-piperazinyl]-N-[[4-[[(1R)-3-(dimethylamino)-1-[(phenylthio)methyl]propyl]amino]-3-nitrophenyl]sulfonyl]-benzamide, reference compound]", "values": [
      {"measurement": "direct cytotoxicity", "setting": "[1]", "value": "not directly cytotoxic"},
      {"measurement": "sensitivity of HL60 cells", "setting": "HL60 cells; HL60 cells, ABT-737 alone", "value": "particularly sensitive"}
    ]},
    {"smiles": "C=CC1=C[C@@H]2[C@@H]3O[C@]4(C[C@H]5CCC[C@@]6(CC[C@@]7(O[C@@H](CC[C@@]7(C)O)CC(=C)CCCC7=NC[C@H](C)[C@@H](C)C[C@@]72CC1)O6)O5)C[C@@H](C)[C@@H](O)[C@H]3O4", "note": "[pinnatoxin G, reference compound]", "values": [
      {"measurement": "cytotoxicity", "setting": "Jurkat T-lymphoma cells", "value": "little cytotoxicity"}
    ]},
    {"smiles": "C=CC1=C[C@@H]2[C@@H]3O[C@]4(CC[C@H](O4)[C@@H](C)C[C@@H](O)C3=O)C[C@H](O)C3=NCC[C@@]32CC1", "note": "(relative stereo) [compound I, (4R,6S,9R,10R,12S,14R,14aR,18aS)-rel-16-ethenyl-1,2,4,5,7,8,9,10,11,12, 14,14a,17,18-tetradecahydro-4,12-dihydroxy-10-methyl-)13H-6,9:6,14-diepoxybenzo[2,3]cyclotetradeca[1,2-b]pyrrol-13-one]", "values": [
      {"measurement": "CC50", "setting": "[1]; Homo sapiens, Jurkat, 48 h, read-out: LC50", "value": 2.4, "unit": "nM"},
      {"measurement": "cell death", "setting": "[1]; Jurkat cells overexpressing Bcl-2, 48 hours, without ABT-737, up to highest concentrations tested", "value": "unable to trigger cell death"},
      {"measurement": "EC50", "setting": "P388 cells; Mus musculus, P388 cells, 72 hours exposure", "value": 2.7, "unit": "nM"},
      {"measurement": "cells killed", "setting": "P388 cells; P388 cells, 10 nM, 72 hours of exposure", "value": "> 90", "unit": "%"},
      {"measurement": "increase in caspase activity", "setting": "[2]; 50 nM portimine in combination with 200 nM ABT-737", "value": 60, "unit": "fold"},
      {"measurement": "caspase activity", "setting": "[2]; any concentration, 6 hours", "value": "no caspase activity"},
      {"measurement": "CC50", "setting": "Jurkat T-lymphoma cells; read-out: LC50, Jurkat cells, 48 hours, without ABT-737", "value": 6, "unit": "nM"},
      {"measurement": "CC50", "setting": "Jurkat T-lymphoma cells; read-out: LC50, wild-type Jurkat cells, 48 hours, with 200 nM ABT-737", "value": 1.4, "unit": "nM"},
      {"measurement": "cells killed", "setting": "Vero cells; 10 nM, 72 hours of exposure", "value": "> 90", "unit": "%"},
      {"measurement": "EC50", "setting": "Vero cells; Chlorocebus sabaeus, 72 hours exposure", "value": 3, "unit": "nM"},
      {"measurement": "CC50", "setting": "K562 cells; Homo sapiens, K562, 48 h, read-out: LC50", "value": 6.7, "unit": "nM"},
      {"measurement": "sensitivity of K562 cells", "setting": "K562 cells; K562 cells, 48 h, without ABT-737", "value": "relatively resistant"},
      {"measurement": "time at which annexin V positive cells are evident", "setting": "Jurkat cells; 50 nM portimine", "value": 2, "unit": "h"},
      {"measurement": "cells annexin V positive", "setting": "Jurkat cells; 6 hours", "value": "up to 50%"},
      {"measurement": "necrosis", "setting": "Jurkat cells; annexin V / propidium iodide staining", "value": "no indication of significant necrosis"},
      {"measurement": "CC50", "setting": "HL60 cells; read-out: LC50, HL60 cells, 48 h, with 50 nM ABT-737", "value": 0.8, "unit": "nM"},
      {"measurement": "CC50", "setting": "HL60 cells; read-out: LC50, HL60 cells, 48 h, without ABT-737", "value": 34, "unit": "nM"},
      {"measurement": "activation of caspase-3", "setting": "caspase-3 in P388 cells", "value": "observed"},
      {"measurement": "caspase activity time course", "setting": "[3]; Jurkat cells, 50 nM portimine", "value": "steady increase in caspase activity over the 5 hours"},
      {"measurement": "caspase activation", "setting": "[3]; wild-type Jurkat cells, increasing concentrations, 6 hours", "value": "dose-dependent increase"},
      {"measurement": "onset of symptoms of toxicity", "setting": "mice [4]; compared with other cyclic imines", "value": "much slower"},
      {"measurement": "effects recorded at sublethal doses", "setting": "mice [4]; intraperitoneal injection, 500 or 700 μg/kg", "value": "No effects"},
      {"measurement": "LD50", "setting": "[5]", "value": 1.57, "unit": "mg/kg"}
    ]},
    {"smiles": "CC1=C[C@@H](C2=C(C)[C@@H]3/C=C(\\C)[C@@H](O)CC[C@@H]4C[C@@H](C)[C@@H](O4)/C(C)=C/CCC4=NCCC[C@@]43CC2)OC1=O", "note": "[gymnodimine]", "values": [
      {"measurement": "LD50 reported for other cyclic imines", "setting": "mice [6]", "value": 0.096, "unit": "mg/kg"}
    ]},
    {"smiles": "C=C1CCCC2=NC[C@H](C)[C@@H](C)C[C@@]23CCC([C@@H]2C=C(C)C(=O)O2)=C(C)[C@@H]3/C=C(\\C)[C@@H](O)C[C@H]2O[C@@]3(C[C@H]2C)O[C@@H](CC[C@@]3(C)O)C1", "note": "[spirolide H]", "values": [
      {"measurement": "toxicity to mice relative to the compound I", "setting": "mice [6]; Roach et al (2009)", "value": "even less toxic to mice than the compound I"}
    ]},
    {"smiles": "C=C1CCCC2=NC[C@H](C)[C@@H](C)C[C@@]23CCC([C@@H]2CCC(=O)O2)=C[C@@H]3[C@@H]2O[C@@]3(C[C@@H](C)C[C@H]2O3)C[C@@H]2O[C@]3(CC[C@@]4(O[C@@H](CC[C@@]4(C)O)C1)O3)C[C@H](C)[C@@H]2O", "note": "[pinnatoxin F, reference compound]", "values": [
      {"measurement": "EC50", "setting": "P388 cells; P388 cells in vitro", "value": "> 1000", "unit": "nM"},
      {"measurement": "cytotoxicity", "setting": "Jurkat T-lymphoma cells", "value": "little cytotoxicity"},
      {"measurement": "LD50 reported for other cyclic imines", "setting": "mice [6]", "value": 0.016, "unit": "mg/kg"}
    ]},
    {"smiles": "C=C1CCCC2=NCC(C)C(C)CC23CCC(C2C=C(C)C(=O)O2)=C(C)C3/C=C(/C)C(O)CC2CCC3(CCC4(OC(CCC4(C)O)C1)O3)O2", "note": "(centres unmarked) [desmethyl spirolide C]", "values": [
      {"measurement": "LD50 reported for other cyclic imines", "setting": "mice [6]", "value": 0.0069, "unit": "mg/kg"}
    ]}
  ]
}
